Measured values: patent US20230114241A1, “METHODS OF TREATING EPILEPSY USING THE SAME” (Trevena, Inc., priority 2019, published 2023)

target: human sphingosine-1-phosphate receptor 1 (S1P1) (Homo sapiens, UniProt P21453); assay: Inhibition of cAMP production (HTRF cAMP HiRange), S1P1 CHO-K1 cells; format: cell-based; conditions: inhibition of cAMP production; potency; read-out: hS1P1 CAMP pEC50 (converted)
Method: Stable clonal Chinese hamster ovary K1 (CHO-K1) cells co-expressing EA-β-arrestin2 and the human sphingosine-1-phosphate receptor 1 (NM_001400, S1P1) with a C-terminal Prolink™ tag were purchased from DiscoverX corporation (Cat #: 93-0207C2).
Cell lines were cultured in AssayComplete™ Media 6 (DiscoverX Corporation, Cat #: 920018GF2) at 37° C. and 5% CO2 in a humidified CO2 and temperature-controlled incubator. To begin assay plating, cells were washed with Dulbecco's phosphate buffered saline (CellGro, Cat #: 21-031-CV) and lifted from the culturing flask by incubation (37° C., 5 min) with CellStripper (Cellgro, Cat #: 25-056-CI). […] Plated cells were incubated overnight at 37° C. and 5% CO2 in a humidified CO2 and temperature-controlled incubator.
Agonist-promoted G-protein responses were determined by measuring changes in intracellular cAMP using the HTRF® cAMP HiRange kit (CisBio, Cat #: 62AM6PEJ) based on time-resolved fluorescence resonance energy transfer (TR-FRET) technology. […] Following a 30-minute incubation at 37° C. and 5% CO2 in a humidified CO2 and temperature-controlled incubator, the components of the cAMP HiRange kit were added as per the manufacturer's instructions. After an hour incubation at room temperature, plates were analyzed by a BMG PheraStar microplate reader.
These values are normalized to fingolimod, a known agonist of the sphingosine-1-phosphate 1 receptor.

Sequence of human sphingosine-1-phosphate receptor 1 (S1P1) (P21453 whole entry): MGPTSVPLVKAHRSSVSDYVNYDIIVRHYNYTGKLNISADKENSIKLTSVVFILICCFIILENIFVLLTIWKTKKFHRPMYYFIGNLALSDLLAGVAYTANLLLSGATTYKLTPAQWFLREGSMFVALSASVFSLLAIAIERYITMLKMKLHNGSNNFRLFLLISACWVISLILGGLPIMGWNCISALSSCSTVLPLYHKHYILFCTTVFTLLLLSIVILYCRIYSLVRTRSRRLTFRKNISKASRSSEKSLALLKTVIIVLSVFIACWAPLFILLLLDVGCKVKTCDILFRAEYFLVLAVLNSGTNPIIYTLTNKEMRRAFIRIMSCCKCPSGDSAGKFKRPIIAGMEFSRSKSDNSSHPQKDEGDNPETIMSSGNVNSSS

EC50 [nM] | SMILES
> 316 | Cc1ccc(-c2noc(-c3ccc4c(c3)nnn4C3CCCCC3)n2)cc1 [Compound 117, 1-cyclohexyl-5-[3-(4-methylphenyl)-1,2,4-oxadiazol-5-yl]-1H-1,2,3-benzotriazole]
> 316 | Cc1ccc(-c2nc(-c3ccc4c(c3)nnn4C(C)C)no2)cn1 [Compound 119, 3-(1-isopropyl-1H-benzo[d][1,2,3]triazol-5-yl)-5-(6-methyl-pyridin-3-yl)-1,2,4-oxadiazole]
< 316 | COc1ccccc1-c1nc(-c2ccc3c(c2)nnn3C2CCCC2)no1 [Compound 120, 3-(1-cyclopentyl-1H-benzo[d][1,2,3]triazol-5-yl)-5-(2-methoxyphenyl)-1,2,4-oxadiazole]
> 316 | CC(C)Oc1ccc(-c2nc(-c3ccc4c(c3)nnn4C3CCCC3)no2)cc1 [Compound 121, 3-(1-cyclopentyl-1H-benzo[d][1,2,3]triazol-5-yl)-5-(4-isopropoxyphenyl)-1,2,4-oxadiazole]
> 316 | CC(C)CCn1nnc2cc(-c3nc(-c4ccc(C(F)(F)F)c(F)c4)no3)ccc21 [Compound 122, 5-{3-[3-fluoro-4-(trifluoromethyl)phenyl]-1,2,4-oxadiazol-5-yl}-1-(3-methyl-butyl)-1H-1,2,3-benzotriazole]
> 316 | COc1cccc(-c2noc(-c3ccc4c(c3)nnn4C3CCCC3)n2)n1 [Compound 124, 1-cyclopentyl-5-[3-(6-methoxypyridin-2-yl)-1,2,4-oxadiazol-5-yl]-1H-1,2,3-benzotriazole]
> 316 | CC(C)n1nnc2cc(-c3noc(C4CCC(F)(F)CC4)n3)ccc21 [Compound 125, 5-[5-(4,4-difluoro-cyclohexyl)-1,2,4-oxadiazol-3-yl]-1-(propan-2-yl)-1H-1,2,3-benzotriazole]
> 316 | Cc1cc(C)cc(Cc2noc(-c3ccc4c(c3)nnn4C(C)C)n2)c1 [Compound 126, 5-{3-[(3,5-dimethyl-phenyl)methyl]-1,2,4-oxadiazol-5-yl}-1-(propan-2-yl)-1H-1,2,3-benzotriazole]
> 316 | CC(C)n1nnc2cc(-c3noc(C4CCCCC4)n3)ccc21 [Compound 127, 5-(5-cyclohexyl-1,2,4-oxadiazol-3-yl)-1-(propan-2-yl)-1H-1,2,3-benzotriazole]
> 316 | CC(C)n1nnc2cc(-c3nc(-c4ccc5nncn5c4)no3)ccc21 [Compound 128, 1-(propan-2-yl)-5-(3-{[1,2,4]triazolo[4,3-a]pyridin-6-yl}-1,2,4-oxadiazol-5-yl)-1H-1,2,3-benzotriazole]
> 316 | COc1ccc(-c2noc(-c3ccc4c(c3)nnn4C(C)C)n2)c2ccccc12 [Compound 129, 5-[3-(4-methoxy-naphthalen-1-yl)-1,2,4-oxadiazol-5-yl]-1-(propan-2-yl)-1H-1,2,3-benzotriazole]
> 316 | COc1cccc(-c2nc(-c3ccc4c(c3)nnn4C3CCCC3)no2)c1 [Compound 130, 3-(1-cyclopentyl-1H-benzo[d][1,2,3]triazol-5-yl)-5-(3-methoxy-phenyl)-1,2,4-oxadiazole]
> 316 | CC(C)n1nnc2cc(-c3noc(-c4ccc(COc5ccccc5)cc4)n3)ccc21 [Compound 131, 3-(1-isopropyl-1H-benzo[d][1,2,3]triazol-5-yl)-5-(4-(phenoxy-methyl)phenyl)-1,2,4-oxadiazole]
< 316 | CC(C)n1nnc2cc(-c3nc(-c4ccccc4OC(F)(F)F)no3)ccc21 [Compound 132, 5-(1-isopropyl-1H-benzo[d][1,2,3]triazol-5-yl)-3-(2-(trifluoro-methoxy)phenyl)-1,2,4-oxadiazole]
> 316 | Cc1ncc(-c2nc(-c3ccc4c(c3)nnn4C(C)C)no2)nc1C [Compound 133, 5-(5,6-dimethylpyrazin-2-yl)-3-(1-isopropyl-1H-benzo[d][1,2,3]triazol-5-yl)-1,2,4-oxadiazole]
> 316 | O=C(O)CCn1nnc2cc(-c3noc(-c4ccccc4Br)n3)ccc21 [Compound 134, 3-(5-(5-(2-bromophenyl)-1,2,4-oxadiazol-3-yl)-1H-benzo[d][1,2,3]triazol-1-yl)propanoic acid]
